Source: patent publication US20160130278A1 (TAISHO PHARMACEUTICAL CO., LTD, priority 2013, published 2016)

The molecules below were run against T1, human type 1 glycine transporter (GlyT1) (Homo sapiens, UniProt P48067) (assay: Glycine uptake inhibition experiment ([3H]glycine uptake)). Conditions: GlyT1.
T1 construct: T98G cells (glioma cells) expressing human type 1 glycine transporter (GlyT1) were used
T1 sequence (P48067 1-706): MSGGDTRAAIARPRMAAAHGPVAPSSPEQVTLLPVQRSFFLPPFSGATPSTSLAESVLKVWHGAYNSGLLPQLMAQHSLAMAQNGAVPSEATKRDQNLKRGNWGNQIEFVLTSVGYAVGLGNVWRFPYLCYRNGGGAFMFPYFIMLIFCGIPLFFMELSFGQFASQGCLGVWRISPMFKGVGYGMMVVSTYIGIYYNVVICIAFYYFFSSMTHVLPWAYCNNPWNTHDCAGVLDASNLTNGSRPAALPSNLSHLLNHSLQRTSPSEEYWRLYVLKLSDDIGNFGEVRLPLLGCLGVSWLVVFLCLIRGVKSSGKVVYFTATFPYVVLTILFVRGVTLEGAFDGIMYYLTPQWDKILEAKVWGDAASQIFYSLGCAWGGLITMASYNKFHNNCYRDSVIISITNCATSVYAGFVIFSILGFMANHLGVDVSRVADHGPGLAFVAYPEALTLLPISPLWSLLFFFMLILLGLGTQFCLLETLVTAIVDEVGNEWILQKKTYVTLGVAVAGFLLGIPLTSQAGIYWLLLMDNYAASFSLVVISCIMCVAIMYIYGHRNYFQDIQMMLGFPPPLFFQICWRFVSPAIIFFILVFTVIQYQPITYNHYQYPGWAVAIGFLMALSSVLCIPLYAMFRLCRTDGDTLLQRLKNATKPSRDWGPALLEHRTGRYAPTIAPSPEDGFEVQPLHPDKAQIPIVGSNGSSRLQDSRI
Type: cell-based
How it was run: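 T98G glioma cells expressing human GlyT1 were pretreated 10 min with compound in HEPES buffer pH 7.4 (0.2% BSA), then incubated with compound plus 250 nM final [3H]glycine for 15 min at room temperature. Intracellular radioactivity was counted after NaOH lysis; 10 μM ALX5407 defined non-specific uptake. IC50 came from 10^−9–10^−5 M curves.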
In the case of O=C(NC(c1cc(Cl)ccc1Cl)C1(O)CCC(F)(F)CC1)c1nccc(C(F)(F)F)c1Cl (centres unmarked) [Compound 148, 3-chloro-N-[(2,5-dichlorophenyl)(4,4-difluoro-1-hydroxycyclohexyl)methyl]-4-(trifluoromethyl)pyridine-2-carboxamide], the IC50 is reported as 260 nM. In the case of CCn1cc(-c2cccc(C(NC(=O)c3cccc(C(F)(F)F)c3Cl)C3(O)CCCCC3)c2)cn1 (centres unmarked) [Compound 16, 2-chloro-N-{[3-(1-ethyl-1H-pyrazol-4-yl)phenyl](1-hydroxycyclohexyl)methyl}-3-(trifluoromethyl)benzamide], the IC50 is reported as 44 nM. CCOc1cccc(C(NC(=O)c2nccc(C(F)(F)F)c2Cl)C2(O)CCCC2)c1 (centres unmarked) [Compound 87, 3-chloro-N-[(3-ethoxyphenyl)(1-hydroxycyclopentyl)methyl]-4-(trifluoromethyl)pyridine-2-carboxamide] showed an IC50 of 300 nM. O=C(NC(c1cccc(Br)c1)C1(O)CCCCC1)c1nccc(C(F)(F)F)c1Cl (single isomer, unassigned) [Compound 43, N-[(3-bromophenyl)(1-hydroxycyclohexyl)methyl]-3-chloro-4-(trifluoromethyl)pyridine-2-carboxamide] showed an IC50 of 1400 nM. For O=C(NC(c1cccc(-n2cccn2)c1)C1(O)CCCC1)c1nccc(C(F)(F)F)c1Cl (centres unmarked) [Compound 80, 3-chloro-N-{(1-hydroxycyclopentyl)[3-(1H-pyrazol-1-yl)phenyl]methyl}-4-(trifluoromethyl)pyridine-2-carboxamide], the IC50 was 160 nM. Molecule O=C(NC(c1cccc(Cl)c1)C1(O)CCC(O)C1)c1nccc(C(F)(F)F)c1Cl (centres unmarked) [Compound 128, 3-chloro-N-[(3-chlorophenyl)(1,3-dihydroxycyclopentyl)methyl]-4-(trifluoromethyl)pyridine-2-carboxamide] has an IC50 of 1100 nM. In the case of O=C(NC(c1cccc(F)c1)C1(O)CCC(F)CC1)c1nccc(C(F)(F)F)c1Cl (single isomer, unassigned) [Compound 236, 3-chloro-N-[(cis-4-fluoro-1-hydroxycyclohexyl)(3-fluorophenyl)methyl]-4-(trifluoromethyl)pyridine-2-carboxamide], the IC50 is reported as 100 nM. In the case of O=C(NC(c1cccc(Cl)n1)[C@]1(O)CC[C@@H](F)CC1)c1ccc(C(F)(F)F)nc1Cl (single isomer, unassigned) [Compound 339, 2-chloro-N-[(6-chloropyridin-2-yl)(cis-4-fluoro-1-hydroxycyclohexyl)methyl]-6-(trifluoromethyl)pyridine-3-carboxamide], the IC50 is reported as 140 nM. O=C(NC(c1cccc(F)c1Cl)[C@]1(O)CC[C@@H](F)CC1)c1nc(Cl)ccc1Cl (single isomer, unassigned) [Compound 279, 3,6-dichloro-N-[(2-chloro-3-fluorophenyl)(cis-4-fluoro-1-hydroxycyclohexyl)methyl]pyridine-2-carboxamide] gave an IC50 of 3900 nM. With O=C(N[C@@H](c1cccc(-c2ccccn2)c1)C1(O)CCCC1)c1nccc(C(F)(F)F)c1Cl [Compound 35, 3-chloro-N-{(S)-(1-hydroxycyclopentyl)[3-(pyridin-2-yl)phenyl]methyl}-4-(trifluoromethyl)pyridine-2-carboxamide] the IC50 was 74 nM. For CCn1cc(-c2cccc(C(NC(=O)c3nccc4ccccc34)C3(O)CCCC3)c2)cn1 (centres unmarked) [Compound 22, N-{[3-(1-ethyl-1H-pyrazol-4-yl)phenyl](1-hydroxycyclopentyl)methyl}isoquinoline-1-carboxamide], the IC50 was 110 nM. O=C(NC(c1cccc(F)c1Cl)[C@]1(O)CC[C@@H](F)CC1)c1cc(Cl)nnc1Cl (single isomer, unassigned) [Compound 305, 3,6-dichloro-N-[(2-chloro-3-fluorophenyl)(cis-4-fluoro-1-hydroxycyclohexyl)methyl]pyridazine-4-carboxamide] gave an IC50 of 1000 nM. In the case of O=C(NC(c1ccccn1)[C@]1(O)CC[C@@H](F)CC1)c1nccc(C(F)(F)F)c1Cl (single isomer, unassigned) [Compound 244, 3-chloro-N-[(cis-4-fluoro-1-hydroxycyclohexyl)(pyridin-2-yl)methyl]-4-(trifluoromethyl)pyridine-2-carboxamide], the IC50 is reported as 1000 nM. O=C(NC(c1cccc(-c2ccccn2)c1)C1(O)CCC(F)(F)CC1)c1nccc(C(F)(F)F)c1Cl (single isomer, unassigned) [Compound 188, 3-chloro-N-{(4,4-difluoro-1-hydroxycyclohexyl)[3-(pyridin-2-yl)phenyl]methyl]-4-(trifluoromethyl)pyridine-2-carboxamide] gave an IC50 of 73 nM. In the case of CS(=O)(=O)c1nc(C(F)(F)F)ccc1C(=O)NC(c1cccc(F)c1Cl)[C@]1(O)CC[C@@H](F)CC1 (single isomer, unassigned) [Compound 388, N-[(2-chloro-3-fluorophenyl)(cis-4-fluoro-1-hydroxycyclohexyl)methyl]-2-(methylsulfonyl)-6-(trifluoromethyl)pyridine-3-carboxamide], the IC50 is reported as 260 nM. Molecule O=C(NC(c1cccnc1Cl)C1(O)CCC(F)(F)CC1)c1cccc(C(F)(F)F)c1Cl (single isomer, unassigned) [Compound 357, 2-chloro-N-[(2-chloropyridin-3-yl)(4,4-difluoro-1-hydroxycyclohexyl)methyl]-3-(trifluoromethyl)benzamide] has an IC50 of 330 nM. O=C(NC(c1cccc(Cl)c1F)C1(O)CCC(F)(F)CC1)c1nccc(C(F)(F)F)c1Cl (single isomer, unassigned) [Compound 168, 3-chloro-N-[(3-chloro-2-fluorophenyl)(4,4-difluoro-1-hydroxycyclohexyl)methyl]-4-(trifluoromethyl)pyridine-2-carboxamide] gave an IC50 of 57 nM. In the case of CCn1cc(-c2cccc(C(NC(=O)c3ccc(C(F)(F)F)nc3C)C3(O)CCC(F)(F)CC3)c2)cn1 (centres unmarked) [Compound 140, N-{(4,4-difluoro-1-hydroxycyclohexyl)[3-(1-ethyl-1H-pyrazol-4-yl)phenyl]methyl}-2-methyl-6-(trifluoromethyl)pyridine-3-carboxamide], the IC50 is reported as 3300 nM. In the case of O=C(NC(c1cc(Cl)ccc1F)[C@]1(O)CC[C@@H](F)CC1)c1cc(C(F)(F)F)ncc1Cl (single isomer, unassigned) [Compound 377, 5-chloro-N-[(5-chloro-2-fluorophenyl)(cis-4-fluoro-1-hydroxycyclohexyl)methyl]-2-(trifluoromethyl)pyridine-4-carboxamide], the IC50 is reported as 920 nM. O=C(NC(c1ccc(Cl)nc1)[C@]1(O)CC[C@@H](F)CC1)c1nccc(C(F)(F)F)c1Cl (single isomer, unassigned) [Compound 291, 3-chloro-N-[(6-chloropyridin-3-yl)(cis-4-fluoro-1-hydroxycyclohexyl)methyl]-4-(trifluoromethyl)pyridine-2-carboxamide] was tested, and the IC50 was 890 nM. Molecule O=C(NC(c1cccc(-c2ccccn2)c1)C1(O)CCC(F)(F)CC1)c1cc(C(F)(F)F)ccc1Cl (single isomer, unassigned) [Compound 190, 2-chloro-N-[(4,4-difluoro-1-hydroxycyclohexyl)[3-(pyridin-2-yl)phenyl]methyl}-5-(trifluoromethyl)benzamide] has an IC50 of 490 nM. In the case of O=C(NC(c1cccc(-c2ccccn2)c1)C1(O)CCC(F)(F)CC1)c1nccc(C(F)(F)F)c1Cl (centres unmarked) [Compound 143, 3-chloro-N-{(4,4-difluoro-1-hydroxycyclohexyl)[3-(pyridin-2-yl)phenyl]methyl}-4-(trifluoromethyl)pyridine-2-carboxamide], the IC50 is reported as 210 nM. In the case of O=C(NC(c1cncc(Cl)c1)[C@]1(O)CC[C@@H](F)CC1)c1nccc(C(F)(F)F)c1Cl (single isomer, unassigned) [Compound 242, 3-chloro-N-[(5-chloropyridin-3-yl)(cis-4-fluoro-1-hydroxycyclohexyl)methyl]-4-(trifluoromethyl)pyridine-2-carboxamide], the IC50 is reported as 240 nM. O=C(NC(c1cccnc1Cl)C1(O)CCC(F)(F)CC1)c1ccnc(C(F)(F)F)c1Cl (single isomer, unassigned) [Compound 341, 3-chloro-N-[(2-chloropyridin-3-yl)(4,4-difluoro-1-hydroxycyclohexyl)methyl]-2-(trifluoromethyl)pyridine-4-carboxamide] showed an IC50 of 850 nM. In the case of O=C(NC(c1cccc(F)c1Cl)[C@]1(O)CC[C@@H](F)CC1)c1ccc(Cl)cc1Cl (single isomer, unassigned) [Compound 264, 2,4-dichloro-N-[(2-chloro-3-fluorophenyl)(cis-4-fluoro-1-hydroxycyclohexyl)methyl]benzamide], the IC50 is reported as 910 nM.

Same assay, conditions: human GlyT1
In the case of O=C(NC(c1cccc(Cl)n1)C1(O)CCCC1)c1nccc(C(F)(F)F)c1Cl (single isomer, unassigned) [Compound 398, 3-chloro-N-[(6-chloropyridin-2-yl)(1-hydroxycyclopentyl)methyl]-4-(trifluoromethyl)pyridine-2-carboxamide], the IC50 is reported as 7500 nM.
